Several values for one entry are separate records, joined by “and”; a condition that tells them apart may be missing. Equal entries are not always repeated. Entries after “also recorded” stand apart in the source; their conditions may differ.
Experiments:
[1] = tested on: Wistar rat (recipient) with transplanted Lewis rat heart; test: Allogeneic heart transplantation (abdominal heterotopic, Lewis donor to Wistar recipient); assay type: in vivo
Method: Hearts of 8-week-old Lewis rats (donor) weighing about 250 g were extracted and performed abdominal heterotopic heart transplantation into the abdominal cavity of 8-week-old Wistar rat (recipient) weight about 300 g by cross-clamping caudal vena cava and the abdominal aorta of recipient both proximally and distally to the anastomotic site.
The heart rate of each rat in an untreated control group and the experimental groups was measured by abdominal palpation from the date of the heart transplant, and the heart rate was classified as ++++ (strong and fast heartbeat), +++ (strong or fast heartbeat), ++ (faint and slow but distinct heartbeat), + (faint but steady heartbeat), and ±0 (intermittent heartbeat).

[2] = tested on: streptozotocin induced diabetic Fischer 344 rats with transplanted Lewis rat islet cells; test: Allogeneic pancreatic islet cell transplantation - combined intraperitoneal administration; assay type: in vivo; conditions: for Average number of days for which islet cell function was maintained / Number of days for which islet cell function was maintained (individual rats): i.p. for 14 days
Method: (§1) Streptozotocin is a drug that destroys pancreatic islet cells to induce diabetes and is used to create experimental diabetic animal models. Allogeneic islets were transplanted into the livers of streptozotocin induced diabetic rat by injection into the portal vein. The functioning of transplanted islets was assessed by daily measurements of blood glucose levels. Islets were considered rejected when the blood glucose level was 200 mg/dl on two consecutive days.
(§2) 35 mg/kg of streptozotocin (50 mg/mL) dissolved in a 0.1 M citrate buffer solution (pH 4.5) was intraperitoneally injected into 8-week-old male Fischer 344 rats (F344) weighing about 200 to 220 g. Then, the blood glucose level was measured after 1 week, and the first day when the blood glucose level increased over 300 mg/dl and the increase was repeated more than twice was considered as the date of diagnosis of diabetes. The rats were used in transplantation 3 weeks after the administration of streptozotocin.
(§3) Pancreases of 8-week-old male Lewis rats were extracted on the 3 weeks after the diabetes was induced in Fischer rats, and islet cells were isolated. The isolated islet cells were cultured in a CO2 incubator at 37° C. for a day, and the cultured islet cells were transplanted into the diabetic Fischer rats.
However, considering the interaction between the two drugs, the two drugs were introduced in different syringes and injected to right and left sides of the abdominal cavity, respectively, and the measurement results are shown in the following table 4.

[3] = tested on: streptozotocin induced diabetic Fischer 344 rats with transplanted Lewis rat islet cells; test: Allogeneic pancreatic islet cell transplantation - single intraperitoneal administration; assay type: in vivo
Method: as §1, §2, §3
Cyclosporin (5 mg/kg), colchicine (10 μg/kg and 40 μg/kg), and colchicine derivative compounds (compounds 1, 7, 9, 14, 15, 17, 18, 22, and 23; 50 μg/kg) were administered to the Fischer rats, to which the islet cells were transplanted, for 14 days from the date of transplantation, and the maintenance of blood glucose levels was examined until rejection occurred from the date of transplantation.

[4] = tested on: spleen cells of rats; test: Cytotoxicity test in rat spleen cells (CCK, absorbance at 450 nm); assay type: cell-based; conditions: 72 hours, at concentrations of 100 ng to 10000 ng/mL
Method: Cytotoxicity test was performed to determine the toxicity of immunosuppressant candidate materials by mixing the immunosuppressant candidate materials with spleen cells of rats in culture media and measuring the degree of toxicity in the cells. […] The concentrations of the drugs were 0.1, 1, 10, 100, 1000, 10000, and 100000 ng/mL. The cells were cultured in a CO2 incubator for 72 hours, and then each well was treated with 10 μl of CCK-SK (Dojindo, Japan). Subsequently, the cells were cultured again in the CO2 incubator for 4 hours, and then the absorbance (O.D. value) was measured at 450 nm using a spectrophotometer.

[5] = tested on: streptozotocin induced diabetic Fischer 344 rats with transplanted Lewis rat islet cells; test: Allogeneic pancreatic islet cell transplantation - continuous combined intraperitoneal administration; assay type: in vivo
Method: as §1, §2, §3

[6] = 10 μg/kg intravenously for 14 days
[7] = 40 μg/kg intravenously for 14 days
[8] = 40 μg/kg intravenously for 14 days, * = death
[9] = 10 μg/kg combined with CsA (5 mg/kg)
[10] = single administration, 10 μg/kg i.p. for 14 days
[11] = single administration, 40 μg/kg i.p. for 14 days
[12] = single administration, 40 μg/kg i.p. for 14 days, * = death
[13] = 50 μg/kg combined with CsA (5 mg/kg)
[14] = single administration, 50 μg/kg i.p. for 14 days
[15] = CsA (5 mg/kg) & Compound 14 (40 μg/kg) for 2 weeks, then continuously injected
[16] = CsA (5 mg/kg) & Compound 14 (500 μg/kg) for 2 weeks, then continuously injected
[17] = CsA (5 mg/kg) & Compound 14 (500 μg/kg) for 2 weeks, then only CsA (5 mg/kg)
[18] = CsA (5 mg/kg) & Compound 14 (500 μg/kg) for 2 weeks, then only compound 14 (500 μg/kg)
[19] = CsA (5 mg/kg) & Compound 14 (500 μg/kg) injected for 2 weeks

COc1cc2c(c(OC)c1OC)-c1ccc(OC)c(=O)cc1[C@@H](NC(C)=O)CC2 [Colchicine, colchicine]
Average number of days for which heart rate was kept [1, 6]: >70 ± 100.5 days
Number of days for which heart rate was kept (individual rats) [1, 6]: 12 day (2×) and > 186 day
Number of days for which heart rate was kept (individual rats) ([1]; 10 μg/kg intravenously for 14 days, listed as colchicine): 12 day and over 186 day
Average number of days for which heart rate was kept [1, 7]: >73.3 ± 85.4 days
Number of days for which heart rate was kept (individual rats) [1, 8]: 13 days and 14 days and > 32 days and > 187 days
Number of days for which heart rate was kept (individual rats) ([1]; 40 μg/kg intravenously for 14 days, * = death, listed as colchicine): 13 day and 14 day and over 187 day
Average number of days for which islet cell function was maintained [2, 9]: 8 days
Average number of days for which islet cell function was maintained ([2]; 10 μg/kg combined with CsA (5 mg/kg), listed as colchicine): 8 days
increase of days of islet cell function compared to the single administration ([2]; 10 μg/kg combined with cyclosporin A (5 mg/kg)): about 3 days
death of rats ([3]; 40 μg/kg alone, four rats, listed as colchicines): two of the four rats were dead; also recorded: one rat was dead suddenly after 9 days
weight reduction ([3]; 40 μg/kg alone, on the second day, the two rats that died): 15%
difference from the control group in maintenance of blood glucose levels ([3]; single administration): no significant differences from the control group
Average number of days for which islet cell function was maintained [3, 10]: 5 days
Number of days for which islet cell function was maintained (individual rats) [3, 10]: 5, 5 day
Average number of days for which islet cell function was maintained [3, 11]: 6 days
Number of days for which islet cell function was maintained (individual rats) [3, 12]: 2 day (2×) and 6 day and 9 day
Number of days for which islet cell function was maintained (individual rats) ([3]; single administration, 40 μg/kg i.p. for 14 days, * = death, listed as colchicines): 6 days

COc1cc2c(c(OC)c1OC)-c1ccc(OC)c(=O)cc1C(NC(=O)OCc1ccccc1)CC2 (centres unmarked) [Compound 1, (1,2,3,10-tetramethoxy-9-oxo-5,6,7,9-tetrahydro-benzo[a]heptalen-7-yl)-carbamic acid benzyl ester]
Average number of days for which islet cell function was maintained [2, 13]: 27 days
Number of days for which islet cell function was maintained (individual rats) [2, 13]: 27, 27 day
cytotoxicity [4]: no cytotoxicity

COc1ccc(COC(=O)NC2CCc3cc(OC)c(OC)c(OC)c3-c3ccc(OC)c(=O)cc32)cc1 (centres unmarked) [Compound 7, (1,2,3,10-tetramethoxy-9-oxo-5,6,7,9-tetrahydro-benzo[a]heptalen-7-yl)-carbamic acid 4-methoxy benzyl ester]
Average number of days for which islet cell function was maintained [2, 13]: >61.6 days
Average number of days for which islet cell function was maintained ([2]; 100 μg/kg combined with CsA (5 mg/kg)): >72 days
Average number of days for which islet cell function was maintained [3, 14]: 5.7 ± 1.16 days
Number of days for which islet cell function was maintained (individual rats) [3, 14]: 5 day (2×) and 7 day
cytotoxicity [4]: no cytotoxicity

COc1cc2c(c(OC)c1OC)-c1ccc(OC)c(=O)cc1C(NC(=O)OCc1ccc(C(C)C)cc1)CC2 (centres unmarked) [Compound 9, (1,2,3,10-tetramethoxy-9-oxo-5,6,7,9-tetrahydro-benzo[a]heptalen-7-yl)-carbamic acid 4-isopropyl benzyl ester]
Average number of days for which islet cell function was maintained [2, 13]: >55.7 days
Average number of days for which islet cell function was maintained [3, 14]: 5.7 ± 0.58 days
Number of days for which islet cell function was maintained (individual rats) [3, 14]: 5 days to days and 5 day and 6 day
cytotoxicity [4]: no cytotoxicity

COc1cc2c(c(OC)c1OC)-c1ccc(OC)c(=O)cc1C(NC(=O)OCC1c3ccccc3-c3ccccc31)CC2 (centres unmarked) [Compound 14, (1,2,3,10-tetramethoxy-9-oxo-5,6,7,9-tetrahydro-benzo[a]heptalen-7-yl)-carbamic acid 9H-fluoren-9-ylmethyl ester]
Average number of days for which heart rate was kept [1, 6]: >107 ± 86.6 days
Number of days for which heart rate was kept (individual rats) [1, 6]: 9 day and over 139 day and over 173 day and > 139 day and > 173 day
Average number of days for which heart rate was kept [1, 7]: >173.5 ± 0.7 days
Number of days for which heart rate was kept (individual rats) [1, 8]: over 173 day and > 174 day and > 173 day
Average number of days for which islet cell function was maintained [5, 15]: >63 ± 9.9 days
Number of days for which islet cell function was maintained (individual rats) [5, 15]: 56 days and > 70 days
Average number of days for which islet cell function was maintained [5, 16]: 67.7 ± 24.0 days
Number of days for which islet cell function was maintained (individual rats) [5, 16]: 40 days and 81 days and 82 days
Average number of days for which islet cell function was maintained [5, 17]: 48.5 ± 12.0 days
Number of days for which islet cell function was maintained (individual rats) [5, 17]: 40 days and 57 days
Average number of days for which islet cell function was maintained [5, 18]: 52.7 ± 52.3 days
Number of days for which islet cell function was maintained (individual rats) [5, 18]: 20 days and 25 days and 113 days
Average number of days for which islet cell function was maintained [5, 19]: 29 ± 3.61 days
Number of days for which islet cell function was maintained (individual rats) [5, 19]: 25 days and 30 days and 32 days
islet cell function improved, times compared to 2 weeks combined administration only ([5]; two drugs continuously administered together after combined administration for 2 weeks): about 2.3 times
Average number of days for which islet cell function was maintained [2, 9]: 28.7 days
Average number of days for which islet cell function was maintained ([2]; 40 μg/kg combined with CsA (5 mg/kg)): >61.8 days
Average number of days for which islet cell function was maintained [3, 10]: 5.5 ± 0.71 days
Number of days for which islet cell function was maintained (individual rats) [3, 10]: 5, 5 day
Average number of days for which islet cell function was maintained [3, 11]: 6.5 ± 0.71 days
Number of days for which islet cell function was maintained (individual rats) [3, 12]: 6 days and 7 days
cytotoxicity [4]: no cytotoxicity

COc1cc2c(c(OC)c1OC)-c1ccc(OC)c(=O)cc1C(NC(=O)OCC1c3ccccc3-c3cccc(C)c31)CC2 (centres unmarked) [Compound 15, (1,2,3,10-tetramethoxy-9-oxo-5,6,7,9-tetrahydro-benzo[a]heptalen-7-yl)-carbamic acid 1-methyl-9H-fluoren-9-ylmethyl ester]
Average number of days for which islet cell function was maintained [2, 13]: 24 days
Number of days for which islet cell function was maintained (individual rats) [2, 13]: 24, 24 day
cytotoxicity [4]: no cytotoxicity

COc1cc2c(c(OC)c1OC)-c1ccc(OC)c(=O)cc1C(NC(=O)OCC1c3cc(C(C)(C)C)ccc3-c3ccc(C(C)(C)C)cc31)CC2 (centres unmarked) [Compound 17, (1,2,3,10-tetramethoxy-9-oxo-5,6,7,9-tetrahydro-benzo[a]heptalen-7-yl)-carbamic acid 2,7-di-tert-butyl-9H-fluoren-9-ylmethyl ester]
Average number of days for which islet cell function was maintained [2, 13]: 36.5 days
cytotoxicity [4]: no cytotoxicity

COc1cc2c(c(OC)c1OC)-c1ccc(OC)c(=O)cc1C(NC(=O)OCCC1c3ccccc3-c3ccccc31)CC2 (centres unmarked) [Compound 18, (1,2,3,10-tetramethoxy-9-oxo-5,6,7,9-tetrahydro-benzo[a]heptalen-7-yl)-carbamic acid 2-(9H-fluoren-9-yl)-ethyl ester]
Average number of days for which islet cell function was maintained [2, 13]: 28 days
cytotoxicity [4]: no cytotoxicity

COc1ccc(CCC(=O)NC2CCc3cc(OC)c(OC)c(OC)c3-c3ccc(OC)c(=O)cc32)cc1 (centres unmarked) [Compound 22, 3-(4-methoxy-phenyl)-N-(1,2,3,10-tetramethoxy-9-oxo-5,6,7,9-tetrahydro-benzo[a]heptalen-7-yl)-propionamide]
Average number of days for which islet cell function was maintained [2, 13]: 20.7 days
cytotoxicity [4]: no cytotoxicity

COc1cc2c(c(OC)c1OC)-c1ccc(OC)c(=O)cc1C(NC(=O)CC1c3ccccc3-c3ccccc31)CC2 (centres unmarked) [Compound 23, 2-(9H-fluoren-9-yl)-N-(1,2,3,10-tetramethoxy-9-oxo-5,6,7,9-tetrahydro-benzo[a]heptalen-7-yl)-acetamide]
Average number of days for which islet cell function was maintained [2, 13]: 26.5 days
cytotoxicity [4]: no cytotoxicity
